This assay deals with T1, MAT2A (Homo sapiens, UniProt P31153).
T1 construct: His6; made in house; host or cells: SF9 insect cells
Nature of the assay: MAT2A biochemical assay (colorimetric inorganic phosphate detection, PiColorLock). The conditions noted are these: recombinant His6-tagged MAT2A 1 μg/ml; 60 minutes preincubation at 25° C.; L-Met 80 μM, ATP 100 μM; 60 minutes reaction; read at 623 nm; read-out: MAT2A Inhibition Score. As to the method:
In the reaction catalyzed by MAT2A enzyme, L-Met and ATP were converted to SAM, inorganic phosphate, and inorganic diphosphate. […] The concentration of malachite green phosphomolybdate produced in the detection reaction is thus directly related to the quantity of product produced by the MAT2A enzyme. Multiple commercial kits exist for this method of phosphate detection and quantification, such as PiColorLock Gold (Innova Biosciences). Typical reaction was performed in 50 μl final volume, containing buffer (Tris, pH 8.0, 50 mM KCl, 15 mM MgCl2, 300 uM EDTA, bovine serum albumin at 0.005% w/v) and 1 μg/ml MAT2A. Compounds were added in 1 μl of DMSO at the desired concentration; a typical dose response curve contained ten points with three-fold dilution between compound concentrations. […] The reaction was allowed to proceed for 60 minutes at room temperature then halted by the addition of 13 μl of PiColor Lock reagent. After a further 5 minutes of incubation at room temperature, […] of PiColor Stabilizer was added and the reactions were further incubated at 25° C. for 25 minutes. […] Recombinant MAT2A protein was expressed in SF9 insect cells and purified by metal chelate affinity chromatography, using methods well known in the art. After expression of His6-tagged MAT2A cells were disrupted by 4 passes through an M-Yl 10 Micro fluidizer (Microfluidics) set to 500 psi, and then centrifuged at 22,000 rcf for 20 min at 4° C. The supernatant was harvested and loaded at 15 cm/h on a Histrap FF 5*1 ml column (GE) which was equilibrated with 50 mM Tris, 500 mM NaCl, pH7.4. Host cell contaminants were removed by washing the column with equilibration buffer followed by equilibration buffer containing 20 mM imidazole and 60 mM imidazole to baseline. MAT2A protein was eluted by the addition of buffer containing 250 mM imidazole, dialized into 50 mM NaCl, 50 mM Tris, pH 7.4, flash frozen in liquid nitrogen, and stored at −80° C. until use.

From patent US10800782B2, “Inhibitors of cellular metabolic processes” (Agios Pharmaceuticals, Inc., priority 2016, dated 2020) come the findings set out here.

T1 sequence (P31153 whole entry): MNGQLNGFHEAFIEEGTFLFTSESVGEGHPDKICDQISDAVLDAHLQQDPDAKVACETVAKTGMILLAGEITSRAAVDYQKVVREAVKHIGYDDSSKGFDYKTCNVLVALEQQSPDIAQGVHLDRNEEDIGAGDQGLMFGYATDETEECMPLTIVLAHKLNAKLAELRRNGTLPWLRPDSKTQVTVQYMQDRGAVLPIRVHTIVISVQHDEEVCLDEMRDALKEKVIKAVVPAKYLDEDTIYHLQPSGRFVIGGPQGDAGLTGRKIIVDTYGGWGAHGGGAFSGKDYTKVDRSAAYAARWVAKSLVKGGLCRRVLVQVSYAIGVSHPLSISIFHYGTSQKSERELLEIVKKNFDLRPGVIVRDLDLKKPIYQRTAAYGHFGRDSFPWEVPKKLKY

In the case of `COc1ccc(-c2c(Nc3ccnc(OC)n3)[nH]c3c(C4=CCCCC4)c(-c4ccccc4)nn3c2=O)cc1` [Compound 156, 3-cyclohexenyl-6-(4-methoxyphenyl)-5-(2-methoxypyrimidin-4-ylamino)-2-phenyl-pyrazolo[1,5-a]pyrimidin-7(4H)-one], the IC50 was less than 100 nM.
As to `COc1ccc(-c2c(Nc3cccnn3)[nH]c3c(C4=CCCCC4)c(-c4ccccc4)nn3c2=O)cc1` [Compound 157, 3-(cyclohex-1-en-1-yl)-6-(4-methoxyphenyl)-2-phenyl-5-(pyridazin-3-ylamino)pyrazolo[1,5-a]pyrimidin-7(4H)-one], the IC50 is less than 100 nM.
The value for `COc1ccc(-c2c(Nc3cnccn3)[nH]c3c(C4=CCCCC4)c(-c4ccccc4)nn3c2=O)cc1` [Compound 158, 3-cyclohexenyl-6-(4-methoxyphenyl)-2-phenyl-5-(pyrazin-2-ylamino) pyrazolo[1,5-a]pyrimidin-7(4H)-one] was less than 100 nM; that for `COc1ccc(-c2c(Nc3cnc(C#N)cn3)[nH]c3c(C4=CCCCC4)c(-c4ccccc4)nn3c2=O)cc1` [Compound 159, 5-(3-cyclohexenyl-6-(4-methoxyphenyl)-7-oxo-2-phenyl-4,7-dihydropyrazolo[1,5-a]pyrimidin-5-ylamino)pyrazine-2-carbonitrile] was less than 100 nM.
Under `COc1ccc(-c2c(Nc3cnc(N)cn3)[nH]c3c(C4=CCCCC4)c(-c4ccccc4)nn3c2=O)cc1` [Compound 160, 5-((5-aminopyrazin-2-yl)amino)-3-(cyclohex-1-en-1-yl)-6-(4-methoxyphenyl)-2-phenylpyrazolo[1,5-a]pyrimidin-7(4H)-one] stands less than 100 nM; under `COc1ccc(-c2c(Nc3nccnn3)[nH]c3c(C4=CCCCC4)c(-c4ccccc4)nn3c2=O)cc1` [Compound 161, 5-((1,2,4-triazin-3-yl)amino)-3-(cyclohex-1-en-1-yl)-6-(4-methoxyphenyl)-2-phenylpyrazolo[1,5-a]pyrimidin-7(4H)-one], less than 100 nM.
The value for `COc1ccc(-c2c(Nc3cnncn3)[nH]c3c(C4=CCCCC4)c(-c4ccccc4)nn3c2=O)cc1` [Compound 162, 5-((1,2,4-triazin-5-yl)amino)-3-(cyclohex-1-en-1-yl)-6-(4-methoxyphenyl)-2-phenylpyrazolo[1,5-a]pyrimidin-7(4H)-one] was less than 100 nM.
Consider `COc1ccc(-c2c(Nc3ncncn3)[nH]c3c(C4=CCCCC4)c(-c4ccccc4)nn3c2=O)cc1` [Compound 163, 5-((1,3,5-triazin-2-yl)amino)-3-(cyclohex-1-en-1-yl)-6-(4-methoxyphenyl)-2-phenylpyrazolo[1,5-a]pyrimidin-7(4H)-one], for which the IC50 is less than 100 nM.
Under `COc1ccc(-c2c(Nc3ncnc(N)n3)[nH]c3c(C4=CCCCC4)c(-c4ccccc4)nn3c2=O)cc1` [Compound 164, 5-((4-amino-1,3,5-triazin-2-yl)amino)-3-(cyclohex-1-en-1-yl)-6-(4-methoxyphenyl)-2-phenylpyrazolo[1,5-a]pyrimidin-7(4H)-one] stands less than 100 nM; under `COc1ccc(-c2c(Nc3ccon3)[nH]c3c(C4=CCCCC4)c(-c4ccccc4)nn3c2=O)cc1` [Compound 165, 3-(cyclohex-1-en-1-yl)-5-(isoxazol-3-ylamino)-6-(4-methoxyphenyl)-2-phenylpyrazolo[1,5-a]pyrimidin-7(4H)-one], less than 100 nM; under `COc1ccc(-c2c(Nc3ncns3)[nH]c3c(C4=CCCCC4)c(-c4ccccc4)nn3c2=O)cc1` [Compound 166, 5-((1,2,4-thiadiazol-5-yl)amino)-3-(cyclohex-1-en-1-yl)-6-(4-methoxyphenyl)-2-phenylpyrazolo[1,5-a]pyrimidin-7(4H)-one], less than 100 nM.
In the case of `COc1ccc(-c2c(Nc3nncs3)[nH]c3c(C4=CCCCC4)c(-c4ccccc4)nn3c2=O)cc1` [Compound 167, 5-((1,3,4-thiadiazol-2-yl)amino)-3-(cyclohex-1-en-1-yl)-6-(4-methoxyphenyl)-2-phenylpyrazolo[1,5-a]pyrimidin-7(4H)-one], the IC50 is less than 100 nM.
